The subject of experiment [1] is E. coli strains AW574 or AW405. Put plainly: Lysis of E. coli by terpenes (galactosidase activity, ONPG, 420 nm).
Excerpt: Lysis of the cell membrane was monitored by the determination of galactosidase activity. […] This enzyme is inducible in the presence of isopropyl-1-thiogalactosidase (IPTG) and assayed colorimetricaly with substrate o-nitro-phenyl-B-D-galactoside (ONPG). ONPG is cleaved to release o-nitrophenol with peak absorvance at 420 nm. Since intact E. coli is impermeable to both ONPG and the enzyme, the cells have to be lysed prior to enzymatic assay. Therefore the ability of terpenes to lyse E. coli can be measured with this enzymatic assay and compared to known lysing agents. The procedure used was as follows: E. coli strains AW574 or AW405 were cultured overnight in 10 ml tryptone broth with 1 nM IPTG at 35° C. Cells were allowed to growth after an absorbance equal to 0.9 was reached. Cells were harvested, washed with phosphate buffer and resuspended to an absorbance equal to 0.5. One tenth of a ml of the bacteria culture was added to 0.9 ml of buffer, warmed to 30° C. and then 80 ul of terpenes (85% terpenes and 15% polysorbate-80), 80 ul water (background) or 40 ul chloroform plus 40 ul 1% SDS in water (positive control) were added. After the addition of the lysing agents the tubes were mixed for 10 seconds and 0.2 ml of ONPG (4 mg/ml water) was added, then incubated for 5 minutes. The enzyme activity was stopped with 0.5 ml of 1 M sodium carbonate. After being centrifuged for 3 minutes at 1,500×g, supernatant was transferred to cuvettes and read at 420 nm. The relative degree of lysis caused by terpenes was calculated as follows:
100×(OD terpenes−OD water)/(OD chloroform−OD water)
Experiment [2] relates to E. coli. The following applies: cited from earlier work.

For the molecule `CC(C)=CCC/C(C)=C/CO` [Geraniol], the Relative lysis % in experiment [1] (Geraniol 3.63 uM, relative to SDS + chloroform = 100%) is recorded as 2.4%; in experiment [1] (Geraniol 363 uM, relative to SDS + chloroform = 100%), 34%; in experiment [1] (Geraniol 3,630 uM, relative to SDS + chloroform = 100%), 98%; in experiment [1] (Geraniol 36,300 uM, relative to SDS + chloroform = 100%), 96%.

With `CC(C)=CCCC(C)=CC=O` [citral], the “citral concentration in media that reduced the concentration of E. coli” value in experiment [2] is “more than 0.01%”. The “citral concentration with bactericidal effect” value in experiment [2] (in media) is listed as 0.08%.

With Polysorbate-80 [reference compound], in experiment [1] (80 ul Polysorbate-80 alone), the Relative lysis % is given as 3.2%.

(Values after patent US6451861B1, “Reduction of gastro-intestinal bacterial load” (priority 1999, dated 2002).)
